Laboratory results: US20230339991A1, “HYPOXIA-ACTIVATED DNA ALKYLATING AGENT AND MEDICAL USE THEREOF” (ASCENTAWITS PHARMACEUTICALS, LTD., priority 2020, published 2023)
Values joined by “and” are separate entries in the source; they are usually repeats but may differ in a detail not shown here. Equal values may be shown once. Read-outs that look alike come from different tables or passages of the source. Marks after values point to notes of the source that are not given here.

Experiments:
[1] = system: AA8; test: Cell inhibition of different species, normoxic, AA8; assay type: cell-based, Rat; conditions: IC50 AA8/H460
Text: To further compare the cytotoxicity of TH-302 with that of compound A, the following further provide test results for H460 cell line and cells from different species at different test times in the same laboratory, with the same operator and under the same experimental conditions.

[2] = Plasma stability, rat; conditions: for Remaining percentage (%) / Remaining percentage: Rat plasma; for Remaining percentage: after 30 minutes
Procedure: (§1) The frozen plasma was immediately melted in a water bath of 37° C. The plasma was centrifuged at 3, 220 g for 10 minutes to remove the blood clots and the supernatant was collected into a new test tube. The pH of the plasma was checked and recorded. Note: a. Only plasma that has been melted no more than twice since arrival was used; b. Only plasma in the range of pH 7 to pH 8 was used.
(§2) 1 mM of working solutions of the test compound and the control compound mevinolin were prepared in DMSO. 1 mM of the working solution of the control compound solution in […] was prepared in acetonitrile. 4 μL of the working solution was added to 796 μL of pre-incubated plasma to achieve 5 μM of final concentration. The final concentration of solvent was 0.5%.
[…] The assay is performed in duplicate. At the end of the two hour incubation, 300 μL of quenched solution at room temperature (acetonitrile containing internal standards (acetonitrile, 100 nM Alprazolam, 500 nM Labetalol and 2 μM ketoprofen)) was added to terminate the reaction. Samples at time 0 were prepared by adding 50 μL of standard addition plasma to the new test tubes with 300 μL of quenched solution at room temperature. The test tubes were mixed by vortex for 5 minutes. The samples in the plates were centrifuged at 3, 220×g for 30 minutes at 4° C. to precipitate the proteins. 100 μL of supernatant was transferred to a new plate. The supernatant was diluted with 100 μL of water, mixed well and analysed using LC-MS/MS.

[3] = Plasma stability, mouse; assay type: in vitro ADME; conditions: for Remaining percentage: after 30 minutes; for plasma stability: mouse plasma
Procedure: The pH of the plasma was checked and recorded. Note: a.
The final concentration of solvent was 0.5%.
The assay is performed in duplicate.

[4] = Plasma stability, dog; conditions: for Remaining percentage: after 30 minutes
Procedure: as §1, §2
The aliquots of 50 μL of the standard addition plasma were added to new test tubes and incubated in the water bath of 37° C. at approximately 60 rpm for 2 hours. The assay is performed in duplicate. At the end of the two hour incubation, 300 μL of quenched solution at room temperature (acetonitrile containing internal standards (acetonitrile, 100 nM Alprazolam, 500 nM Labetalol and 2 μM ketoprofen)) was added to terminate the reaction. Samples at time 0 were prepared by adding 50 μL of standard addition plasma to the new test tubes with 300 μL of quenched solution at room temperature. The test tubes were mixed by vortex for 5 minutes. The samples in the plates were centrifuged at 3, 220×g for 30 minutes at 4° C. to precipitate the proteins. 100 μL of supernatant was transferred to a new plate. The supernatant was diluted with 100 μL of water, mixed well and analysed using LC-MS/MS.

[5] = system: PANC1 cells; test: Clonogenic assay, PANC1; assay type: cell-based, human; conditions: for IC90: Homo sapiens, PANC-1, 3 h
Procedure: (§3) The following PSN-1 cells, PANC1 cells, MiaPaCa-2 cells, H460 cells, DLD-1 WT (wild type) cells, DLD-1 BRCA2 KO (BRCA2 deletion) cells were seeded in 10 cm vitreous cell culture plates at specific cell numbers and incubated for 2 days at 37° C. and under the conditions of 5% CO2, 95% air and 100% relative humidity. On day 3, test compounds TH302 or AST-002-P2 at the specific concentrations were added to the cells, and incubated for 3 hours together with the cells under normoxic (21% O2) and hypoxic conditions (<0.01% O2), respectively. After cells were stimulated by compounds, the cells were washed once with 1×PBS and digested into single cells with pancreatic enzymes for cell counting. The above cells in specific cell numbers were reseeded in a new culture plate and cultured for 7 days to perform single cell colony formation. When single cells in compound culture plates stimulated under normoxic conditions proliferated to about 50 cells, the cultures were removed and stained with 0.5% crystal violet for 40 minutes. After staining, cells were counted for colonies using Colony Counter (VWR) and the IC90 was calculated.

[6] = system: DLD-1 WT (wild type) cells; test: Clonogenic assay, DLD-1 WT; assay type: cell-based; conditions: for IC90: Homo sapiens, 3 h
Procedure: as §3

[7] = system: DLD-1 BRCA2 KO (BRCA2 deletion) cells; test: Clonogenic assay, DLD-1 BRCA2 KO; assay type: cell-based; conditions: for IC90: Homo sapiens, 3 h
Procedure: as §3

[8] = system: human lung cancer NCI-H460 subcutaneous xenograft; test: Human lung cancer NCI-H460 subcutaneous xenograft model, compounds B and C; assay type: in vivo, BALB/c nude mice; conditions: for relative tumor inhibition rate TGI (%): QD×5 per cycle, 2 cycles, Day 28
Procedure: BALB/c nude mice were subcutaneously inoculated with human lung cancer NCI-H460 cells to establish human lung cancer subcutaneous transplantation tumor model. […] The positive drug Irinotecan 40 mg/kg group was administered by intraperitoneal injection once every 4 days for 7 times, and observed for 4 days.

[9] = Blood-brain barrier experiment, brain and plasma concentrations after IV dosing; assay type: in vivo, CD-1 mice; conditions: CD-1, mouse; for Kp at 0.25 h / Kp at 2 h: brain/plasma, iv, 1 mg/kg; for Kp at 0.25 h: read-out: Mean Ratio (Brain/Plasma); for Kp at 2 h: single animals, read-out: Ratio (Brain/Plasma); for Cmax / Tmax: brain tissue; for Cmax / Tmax / AUC: IV 1 mg/kg; for AUC: plasma
[10] = 21% O2, read-out: IC90 Normoxia
[11] = <0.01% O2, read-out: IC90 Hypoxia

O=[N+]([O-])c1ccc(C(OP(=O)(N2CC2)N2CC2)C(F)(F)F)c2ccccc12 (racemic) [Compound A]
Multiplier: Rat/Human ([1]; exposure 3 days): 110 | Remaining percentage (%) ([2]; 15 min): 101 ± 1.33% | Remaining percentage (%) ([2]; 60 min): 88.9 ± 0.537% | Remaining percentage (%) ([2]; 90 min): 84.6 ± 1.20% | Remaining percentage (%) ([2]; 120 min): 69.0% and 69.0 ± 1.10% | Remaining percentage (%) ([2]; 2 h time course, 0 min): 100% | Remaining percentage [2]: 52.11% | Remaining percentage (%) ([2]; time course, 30 min): 100 ± 2.23% | half-life at 5 µM ([2]; rat plasma): 3.77 h | plasma stability ([2]; rat plasma): unstable | Remaining percentage (%) ([3]; Mouse plasma, 15 min): 104 ± 2.96% | Remaining percentage (%) ([3]; Mouse plasma, 60 min): 86.6 ± 3.16% | Remaining percentage (%) ([3]; Mouse plasma, 90 min): 76.9 ± 2.40% | Remaining percentage (%) ([3]; Mouse plasma, 120 min): 66.4% and 66.4 ± 0.993% | Remaining percentage (%) ([3]; Mouse plasma, 2 h time course, 0 min): 100% | Remaining percentage ([3]; Mouse plasma): 55.07% | half-life at 5 µM ([3]; Mouse plasma, in vitro, read-out: t½): 3.15 h | Remaining percentage (%) ([3]; Mouse plasma, time course, 30 min): 97.7 ± 4.71% | plasma stability [3]: unstable | Remaining percentage (%) ([4]; Dog plasma, 15 min): 107 ± 2.54% | Remaining percentage (%) ([4]; Dog plasma, 60 min): 101 ± 5.20% | Remaining percentage (%) ([4]; Dog plasma, 90 min): 105 ± 3.67% | Remaining percentage (%) ([4]; Dog plasma, 120 min): 98.9% and 98.9 ± 0.476% | Remaining percentage (%) ([4]; Dog plasma, 2 h time course, 0 min): 100% | Remaining percentage ([4]; Dog plasma): 85.04% | t½ ([4]; Dog plasma, in vitro): >373* min | Remaining percentage (%) ([4]; Dog plasma, time course, 30 min): 105 ± 1.27% | half-life at 5 µM ([4]; dog plasma): > 6.22 h | plasma stability ([4]; dog plasma): stable

O=[N+]([O-])c1ccc([C@@H](OP(=O)(N2CC2)N2CC2)C(F)(F)F)c2ccccc12 (single isomer, unassigned) [Compound C]
IC90 [5, 10]: > 10 µM | IC90 [5, 11]: > 1 µM | IC90 [6, 10]: > 0.14 µM | IC90 [6, 11]: > 0.14 µM | IC90 [7, 10]: > 10 µM | IC90 [7, 11]: 0.112 µM | HCR ([7]; IC90 ratio normoxic/N2): >89 | HCR ([7]; IC90 ratio normoxic/N2, listed as compound C): > 89 | relative tumor inhibition rate TGI (%) ([8]; 20 mg/kg i.p.): 90.56% | relative tumor inhibition rate TGI (%) ([8]; 40 mg/kg i.p.): 94.33% | complete cure rate on tumors ([8]; group 6, 20 mg/kg, Day35): 20% | Kp at 0.25 h [9]: 0.86 | Kp at 2 h [9]: 1.35 | Cmax [9]: 445 ng/g | Tmax [9]: 4.8 min | AUC [9]: 190 ng·h/mL

O=[N+]([O-])c1ccc([C@H](OP(=O)(N2CC2)N2CC2)C(F)(F)F)c2ccccc12 [Compound B]
relative tumor inhibition rate TGI (%) ([8]; 20 mg/kg i.p.): 88.51% | Kp at 0.25 h [9]: 1.59 | Kp at 2 h [9]: 1.38 | Cmax [9]: 983 ng/g | Tmax [9]: 4.8 min | AUC [9]: 289 ng·h/mL

CC(OP(=O)(N1CC1)N1CC1)c1ccc([N+](=O)[O-])c2ccccc12 (stereo not shown) [Compound D]
Remaining percentage [2]: 85.49% | plasma stability ([2]; rat plasma): relatively unstable | Remaining percentage ([3]; Mouse plasma): 87.35% | plasma stability [3]: relatively unstable | Remaining percentage ([4]; Dog plasma): 91.95% | plasma stability ([4]; dog plasma): relatively stable

Cn1c(COP(=O)(NCCBr)NCCBr)cnc1[N+](=O)[O-] [TH-302, Evofosfamide]
Multiplier: Rat/Human ([1]; exposure 2 h): 41.5 | IC90 [5, 10]: > 100 µM | IC90 [5, 11]: 7.29 µM | HCR ([5]; IC90 ratio normoxic/N2): >13.7 | IC90 [6, 10]: 26.2 µM | IC90 [6, 11]: 0.21 µM | HCR ([6]; IC90 ratio normoxic/N2): 125 | IC90 [7, 10]: 21.9 µM | IC90 [7, 11]: 0.00301 µM | HCR ([7]; IC90 ratio normoxic/N2): 7277
